For one series, the target named is human D3 receptor (Homo sapiens, UniProt P35462). The series is described as follows: [3H]spiperone binding, membranes of CHO cells transfected with human D3 receptor cDNA. To be noted: affinity for the human D3 receptor; [3H]spiperone 0.5-2 nM, CHO-hD3 membranes, 60 minutes at room temperature. As for the experimental part:
Affinity of compounds for the human D3 receptor can be determined by [^3H] spiperone binding CHO cells have been transfected by the cDNA coding for the human D3 receptor (hD3). [^3H]Spiperone (0.5 à 2 nM) binding is performed in the presence of 2.5 to 5 μg of membrane proteins in a medium containing 120 mM NaCl, 5 mM KCl, and 50 mM Tris HCl pH 7.4; incubation for 60 minutes at room temperature is performed. Non specific binding is estimated in the presence of 10 μM haloperidol. Non transfected cells are devoid of any specific binding.

Structures can show the parent of a compound that is named as a salt.

One may read the Ki as a measure of affinity in units of concentration, obtained from inhibition or displacement. A lower Ki goes with tighter binding. A word on the melting point: it is the temperature, or range, at which the solid turns liquid.

human D3 receptor, sequence (P35462 whole entry): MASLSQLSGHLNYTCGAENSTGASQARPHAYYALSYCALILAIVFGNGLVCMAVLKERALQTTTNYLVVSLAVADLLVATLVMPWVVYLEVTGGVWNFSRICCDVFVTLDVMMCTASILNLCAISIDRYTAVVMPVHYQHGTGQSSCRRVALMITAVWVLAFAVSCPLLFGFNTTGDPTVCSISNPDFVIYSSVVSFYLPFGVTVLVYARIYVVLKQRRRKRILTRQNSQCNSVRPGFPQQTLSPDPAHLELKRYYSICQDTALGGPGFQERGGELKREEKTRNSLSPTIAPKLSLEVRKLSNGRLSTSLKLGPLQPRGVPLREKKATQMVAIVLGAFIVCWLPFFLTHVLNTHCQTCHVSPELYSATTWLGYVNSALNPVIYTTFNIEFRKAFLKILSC

`CC(=O)C(=O)N1CCC(CCN2CCN(c3cccc(C(F)(F)F)c3)CC2)CC1` [Example 2, 1-(4-{2-[4-(3-trifluoromethylphenyl)piperazin-1-yl]ethyl}-piperidin-1-yl)propane-1,2-dione, hydrochloride] had a Ki at human D3 receptor of 6.6 nM.

Consider `O=C(CO)N[C@H]1CC[C@H](CCN2CCN(c3cccc(C(F)(F)F)c3)CC2)CC1` [Example 46, 2-Hydroxy-N-(4-{2-[4-(3-trifluoromethylphenyl)piperazin-1-yl]ethyl}cyclohexyl)acetamide, hydrochloride], for which, on human D3 receptor, the Ki was 12 nM.

With `CCc1ccc(F)c(N2CCN(CC[C@H]3CC[C@H](NC(=O)CCCC#N)CC3)CC2)c1` [Example 674, 4-Cyano-N-(4-{2-[4-(5-ethyl-2-fluorophenyl)piperazin-1-yl]ethyl}cyclohexyl)butanamide], the melting point turned out to be 153 °C.

`COCCCC(=O)N[C@H]1CC[C@H](CCN2CCN(c3cccc(F)c3)CC2)CC1` [Example 419, N-(4-{2-[4-(3-Fluorophenyl)piperazin-1-yl]ethyl}cyclohexyl)-4-methoxybutanamide]: the melting point amounted to 165 °C.

`Cc1ccc(N2CCN(CC[C@H]3CC[C@H](NC(=O)CC(F)(F)F)CC3)CC2)cc1C` [Example 509, N-(4-{2-[4-(3,4-Dimethylphenyl)piperazin-1-yl]ethyl}cyclohexyl)-3,3,3-trifluoropropanamide]: the melting point was found to be 199 °C.

The molecule `Cc1ccc(N2CCN(CC[C@H]3CC[C@H](NC(=O)CCCC#N)CC3)CC2)c(F)c1` [Example 485, 4-Cyano-N-(4-{2-[4-(2-fluoro-4-methylphenyl)piperazin-1-yl]ethyl}cyclohexyl)butanamide] displayed a melting point of 173 °C.

For the molecule `Cl.N#CCCCC(=O)N1CCC(CCN2CCN(c3cccc(C(F)(F)F)c3)CC2)CC1`, the melting point was 95 °C.

In turn, `O=C(N[C@H]1CC[C@H](CCN2CC=C(c3ccccc3F)CC2)CC1)C1=CCCC1` displayed a melting point of 192 °C.

`O=C(N[C@H]1CC[C@H](CCN2CCN(c3ccc(F)cc3)CC2)CC1)C1=CCCC1` [Example 431, Cyclopent-1-enecarboxylic acid (4-{2-[4-(4-fluorophenyl)-piperazin-1-yl]ethyl}cyclohexyl) amide] had a melting point of 227 °C.

Take `N#CCC(=O)N[C@H]1CC[C@H](CCN2CCN(c3ccc(Cl)cc3Cl)CC2)CC1` [Example 709, 2-Cyano-N-(4-{2-[4-(2,4-dichlorophenyl)piperazin-1-yl]ethyl}cyclohexyl)acetamide]: the melting point came out at 189 °C.

The molecule `N#CCC(=O)N[C@H]1CC[C@H](CCN2CCN(c3ccc(F)c(F)c3)CC2)CC1` [Example 325, 2-Cyano-N-(4-{2-[4-(3,4-difluorophenyl)piperazin-1-yl]ethyl}cyclohexyl)acetamide] returned a melting point of 197 °C.

As for `CC(=O)CN1CCC(CCN2CCN(c3ccccc3C)CC2)CC1.Cl.Cl`, the melting point worked out at 289 °C.

With `CCOCC(=O)N1CCC(CCN2CCN(c3cccc(C(F)(F)F)c3)CC2)CC1.Cl`, the melting point turned out to be 145 °C.

Molecule `Cc1ccc(C)c(N2CCN(CC[C@H]3CC[C@H](NC(=O)CC#N)CC3)CC2)c1` [Example 152, 2-Cyano-N-(4-{2-[4-(2,5-dimethylphenyl)piperazin-1-yl]ethyl}cyclohexyl)acetamide] gave a melting point of 184 °C.

Consider `CC(=O)CN1CCC(CCN2CCN(c3ccc(C)c(Cl)c3)CC2)CC1` [Example 618, 1-(4-{2-[4-(3-Chloro-4-methylphenyl)piperazin-1-yl]ethyl}piperidin-1-yl)propan-2-one], for which the melting point was determined as 103 °C.

`CC(=O)CN1CCC(CCN2CCN(c3ccc(Cl)cc3Cl)CC2)CC1.Cl.Cl` gave a melting point of 283 °C.

For `COCCCC(=O)N[C@H]1CC[C@H](CCN2CCN(c3cccc(F)c3C)CC2)CC1` [Example 689, N-(4-{2-[4-(3-Fluoro-2-methylphenyl)piperazin-1-yl]ethyl}cyclohexyl)-4-methoxybutanamide], the melting point stood at 172 °C.

Molecule `N#CCC(=O)N[C@H]1CC[C@H](CCN2CC=C(c3cccc(C#N)c3)CC2)CC1` yielded a melting point of 185 °C.

As for `CC(=O)CN1CCC(CCN2CCN(c3cc(C)cc(Cl)c3)CC2)CC1.Cl.Cl`, the melting point is 300 °C.

`COCCCC(=O)N[C@H]1CC[C@H](CCN2CCN(c3ccc(F)c(C(F)(F)F)c3)CC2)CC1` [Example 754, N-(4-{2-[4-(4-Fluoro-3-trifluoromethylphenyl)piperazin-1-yl]ethyl}cyclohexyl)-4-methoxybutanamide] came in with a melting point of 177 °C.

In turn, `N#CCC(=O)N[C@H]1CC[C@H](CCN2CC=C(c3ccccc3F)CC2)CC1` returned a melting point of 156 °C.

With `COCC(=O)N[C@H]1CC[C@H](CCN2CCN(c3ccc(F)c(C(F)(F)F)c3)CC2)CC1` [Example 760, N-(4-{2-[4-(4-Fluoro-3-trifluoromethylphenyl)piperazin-1-yl]ethyl}cyclohexyl)-2-methoxyacetamide], the melting point worked out at 146 °C.

`COCC(=O)N[C@H]1CC[C@H](CCN2CCN(c3cc(C(C)(C)C)nc(C(C)(C)C)n3)CC2)CC1` [Example 122, N-(4-{2-[4-(2,6-Di-tert-butylpyrimidin-4-yl)piperazin-1-yl]ethyl}cyclohexyl)-2-methoxyacetamide] showed a melting point of 130 °C.

For `Cc1ccc(N2CCN(CC[C@H]3CC[C@H](NC(=O)CC#N)CC3)CC2)c(F)c1` [Example 484, 2-Cyano-N-(4-{2-[4-(2-fluoro-4-methylphenyl)piperazin-1-yl]ethyl}cyclohexyl)acetamide], the melting point worked out at 197 °C.

The molecule `CC(=O)CN1CCC(CCN2CCN(c3cccc(C(F)(F)F)c3F)CC2)CC1.Cl.Cl` showed a melting point of 270 °C.

For `N#CCC(=O)N[C@H]1CC[C@H](CCN2CCN(c3cccc(Cl)c3C#N)CC2)CC1` [Example 246, N-(4-{2-[4-(3-Chloro-2-cyanophenyl)piperazin-1-yl]ethyl}cyclohexyl)-2-cyanoacetamide], the melting point is 232 to 233 °C.

Regarding `CC(=O)CN1CCC(CCN2CCN(c3ccc(C#N)cc3)CC2)CC1.Cl.Cl`, the melting point amounted to 295 °C.

`CN(C)CCCC(=O)N[C@H]1CC[C@H](CCN2CCN(c3cccc(C(F)(F)F)c3)CC2)CC1` [Example 223, 4-Dimethylamino-N-(4-{2-[4-(3-trifluoromethylphenyl)piperazin-1-yl]ethyl}cyclohexyl)butanamide] showed a melting point of 128 °C.

Regarding `CCOCC(=O)N[C@H]1CC[C@H](CCN2CCN(c3ccccc3Cl)CC2)CC1` [Example 132, N-(4-{2-[4-(2-Chlorophenyl)-piperazin-1-yl]ethyl}cyclohexyl)-2-ethoxyacetamide], the melting point was 108 °C.

Take `CC(=O)CN1CCC(CCN2CCN(c3ccc(Cl)c(Cl)c3)CC2)CC1` [Example 495, 1-(4-{2-[4-(3,4-Dichlorophenyl)-piperazin-1-yl]ethyl}piperidin-1-yl)propan-2-one]: the melting point was 114 °C.

With `CCOCC(=O)N[C@H]1CC[C@H](CCN2CCN(c3ccccc3F)CC2)CC1` [Example 56, 2-Ethoxy-N-(4-{2-[4-(2-fluorophenyl)piperazin-1-yl]ethyl}cyclohexyl)acetamide], the melting point was 117 to 118 °C.

The molecule `O=C(N[C@H]1CC[C@H](CCN2CCN(c3ccc(Cl)cc3)CC2)CC1)C1=CCCC1` [Example 488, Cyclopent-1-enecarboxylic acid (4-{2-[4-(4-chlorophenyl)-piperazin-1-yl]ethyl}cyclohexyl) amide] displayed a melting point of 237 °C.

For `N#CCCCC(=O)N[C@H]1CC[C@H](CCN2CCN(c3cccc(C(F)F)c3)CC2)CC1` [Example 364, 4-Cyano-N-(4-{2-[4-(3-difluoromethylphenyl)piperazin-1-yl]ethyl}cyclohexyl)butanamide], the melting point is 155 °C.

In turn, `Cc1cccc(N2CCN(CC[C@H]3CC[C@H](NC(=O)CCCC#N)CC3)CC2)c1C` [Example 429, 4-Cyano-N-(4-{2-[4-(2,3-dimethylphenyl)piperazin-1-yl]ethyl}cyclohexyl)butanamide] returned a melting point of 162 °C.

Molecule `COc1ccc(OC)c(N2CCN(CC[C@H]3CC[C@H](NC(=O)CC#N)CC3)CC2)c1` [Example 221, 2-Cyano-N-(4-{2-[4-(2,5-dimethoxyphenyl)piperazin-1-yl]ethyl}cyclohexyl)acetamide] gave a melting point of 171 to 173 °C.

`Cc1ccccc1N1CCN(CC[C@H]2CC[C@H](NC(=O)CC#N)CC2)CC1` [Example 220, 2-Cyano-N-{4-[2-(4-o-tolylpiperazin-1-yl)ethyl]cyclohexyl}acetamide] gave a melting point of 150 °C.

For `CC(=O)CN1CCC(CCN2CCN(c3cc(F)c(C(F)(F)F)c(F)c3)CC2)CC1.Cl.Cl`, the melting point amounted to 80 °C.

Regarding `CC(=O)CN1CCC(CCN2CCc3cc(C#N)ccc3C2)CC1.Cl.Cl`, the melting point stood at 249 °C.

Regarding `N#CCC(=O)N[C@H]1CC[C@H](CCN2CCN(c3cc(C(F)(F)F)ccc3F)CC2)CC1` [Example 174, 2-Cyano-N-(4-{2-[4-(2-fluoro-5-trifluoromethylphenyl)piperazin-1-yl]ethyl}cyclohexyl)acetamide], the melting point was determined as 197 °C.

`N#CCCCC(=O)N[C@H]1CC[C@H](CCN2CCN(c3cccc(-c4ncco4)c3)CC2)CC1` [Example 526, 4-Cyano-N-(4-{2-[4-(3-oxazol-2-ylphenyl)piperazin-1-yl]ethyl}cyclohexyl)butanamide] gave a melting point of 192 °C.

`Cc1ccc(N2CCN(CC[C@H]3CC[C@H](NC(=O)CC#N)CC3)CC2)cc1Cl` [Example 369, N-(4-{2-[4-(3-Chloro-4-methylphenyl)piperazin-1-yl]ethyl}cyclohexyl)-2-cyanoacetamide] gave a melting point of 220 °C.
